# Experiments:
# Format in all cases: functional, cell-based
# HepG2 [1] = assay: Antiproliferative activity against human HepG2 cells assessed as reduction in cell viability incubated for 24 hrs ny MTT assay; conditions: HepG2, 24 h
# HeLa [2] = assay: Antiproliferative activity against human HeLa cells assessed as reduction in cell viability incubated for 24 hrs by MTT assay
# HuCC-A1 = assay: Cytotoxicity against human HuCC-A1 cells assessed as reduction in cell growth incubated for 3 days by micro-titer plate reader analysis; conditions: HuCC-A1, 72 h
# MDA-MB-231 [3] = assay: Cytotoxicity against human MDA-MB-231 cells assessed as reduction in cell growth incubated for 48 hrs by MTT assay; conditions: MDA-MB-231, 48 h
# HepG2 [4] = assay: Cytotoxicity against human HepG2 cells assessed as reduction in cell viability incubated for 24 hrs by MTT assay; conditions: HepG2, 24 h
# HeLa [5] = assay: Cytotoxicity against human HeLa cells assessed as reduction in cell growth incubated for 48 hrs by MTT assay
# KB = assay: Cytotoxicity against human KB cells assessed as reduction in cell growth incubated for 3 days by micro-titer plate reader analysis; conditions: 72 h
# Ca-Ski [6] = assay: Antiproliferative activity against human Ca-Ski cells assessed as reduction in cell growth after 48 hrs by MTT assay
# HeLa [7] = assay: Antiproliferative activity against human HeLa cells assessed as reduction in cell growth after 48 hrs by MTT assay
# SH-SY5Y = assay: Cytotoxicity against human SH-SY5Y cells assessed as reduction in cell viability incubated for 24 hrs by MTT assay
# CCRF-CEM = assay: Cytotoxicity against human CCRF-CEM cells
# T98G = assay: Antiproliferative activity against human T98G cells assessed as inhibition of cell growth incubated for 72 hrs by celltiter-glo assay
# DU-145 = assay: Cytotoxicity against human DU-145 cells
# U-937 = assay: Cytotoxicity against human U-937 cells
# HeLa [8] = assay: Cytotoxicity against human HeLa cells
# Ca-Ski [9] = assay: Cytotoxicity against human Ca-Ski cells
# MDA-MB-231 [10] = assay: Cytotoxicity against human MDA-MB-231 cells
# BT-474 = assay: Cytotoxicity against human BT-474 cells
smiles,measurement,setting,value
C[C@H](CC[C@H]1O[C@H]2C[C@H]3[C@@H]4CC=C5C[C@@H](O[Si](C)(C)C(C)(C)C)CC[C@]5(C)[C@H]4CC[C@]3(C)[C@H]2[C@@H]1C)COC1=C(Cl)C(=O)c2ccccc2C1=O,IC50,HepG2 [1],5.81 µM
same,IC50,HeLa [2],17.4 µM
C[C@@H]1CC[C@@]2(OC1)O[C@H]1C[C@H]3[C@@H]4CC=C5C[C@@H](O[C@@H]6O[C@H](CO)[C@@H](O[C@@H]7O[C@@H](C)[C@H](O[C@@H]8O[C@@H](C)[C@H](O)[C@@H](O)[C@H]8O)[C@@H](O)[C@H]7O)[C@H](O)[C@H]6O[C@@H]6O[C@@H](C)[C@H](O)[C@@H](O)[C@H]6O)CC[C@]5(C)[C@H]4CC[C@]3(C)[C@H]1[C@@H]2C [PENNOGENIN RAHAMNOSYL CHACOTRIOSIDE],IC50,HuCC-A1,3 µM
same,IC50,MDA-MB-231 [3],3.1 µM
same,IC50,HepG2 [4],6.33 µM
same,IC50,HeLa [5],3 µM
same,IC50,KB,6.2 µM
C[C@@H]1CC[C@@]2(OC1)O[C@H]1C[C@H]3[C@@H]4CC=C5C[C@@H](O)CC[C@]5(C)[C@H]4CC[C@]3(C)[C@H]1[C@@H]2C [DISOGENIN],IC50,Ca-Ski [6],80 µM
same,IC50,HeLa [7],31.4 µM
C[C@@H]1CC[C@@]2(OC1)O[C@H]1C[C@H]3[C@@H]4CC=C5C[C@@H](O[C@@H]6O[C@H](CO)[C@@H](O[C@@H]7O[C@@H](C)[C@H](O)[C@@H](O)[C@H]7O)[C@H](O)[C@H]6O)CC[C@]5(C)[C@H]4CC[C@]3(C)[C@H]1[C@@H]2C,IC50,Ca-Ski [6],80 µM
same,IC50,HeLa [7],45.1 µM
C[C@@H]1CC[C@@]2(OC1)O[C@H]1C[C@H]3[C@@H]4CC=C5C[C@@H](OC(=O)CN(C)C(=O)OC(C)(C)C)CC[C@]5(C)[C@H]4CC[C@]3(C)[C@H]1[C@@H]2C,IC50,SH-SY5Y,15.2 µM
COc1cccc(COc2ccc(-c3cn(C4C[C@H]5[C@@H]6C[C@@H]7O[C@]8(CC[C@@H](C)CO8)[C@@H](C)[C@@H]7[C@@]6(C)CC[C@@H]5[C@@]5(C)CC[C@H](O)CC45O)nn3)cc2)c1 (some centres undefined),IC50,CCRF-CEM,5.73 µM
same,IC50,T98G,7.51 µM
same,IC50,DU-145,10.5 µM
CC(=O)O[C@H]1CC[C@@]2(C)C(=CC[C@H]3[C@@H]4C[C@@H]5O[C@H](CC[C@@H](C)COC6=C(Cl)C(=O)c7ccccc7C6=O)[C@@H](C)[C@@H]5[C@@]4(C)CC[C@@H]32)C1,IC50,HepG2 [1],13.5 µM
C[C@@H]1CC[C@@]2(OC1)O[C@H]1C[C@H]3[C@@H]4CC(n5cc(-c6ccccn6)nn5)C5(O)C[C@@H](O)CC[C@]5(C)[C@H]4CC[C@]3(C)[C@H]1[C@@H]2C (some centres undefined),IC50,U-937,15.2 µM
CCCC(N)C(=O)O[C@H]1CC[C@@]2(C)C(=CC[C@H]3[C@@H]4C[C@@H]5O[C@]6(CC[C@@H](C)CO6)[C@@H](C)[C@@H]5[C@@]4(C)CC[C@@H]32)C1 (some centres undefined),IC50,SH-SY5Y,6.9 µM
C[C@@H]1CC[C@@]2(OC1)O[C@H]1C[C@H]3[C@@H]4CC=C5C[C@@H](O[C@@H]6O[C@H](CO)[C@@H](O[C@@H]7O[C@@H](CO)[C@H](O)[C@H]7O)[C@H](O)[C@H]6O[C@@H]6O[C@@H](C)[C@H](O)[C@@H](O)[C@H]6O)CC[C@]5(C)[C@H]4CC[C@]3(C)[C@H]1[C@@H]2C,IC50,HepG2 [4],12.2 µM
CC(=O)O[C@@H]1C=C2CC[C@H]3[C@@H]4C[C@@H]5O[C@@]6(OC[C@H](C)CC6/C(C)=N\O)[C@@H](C)[C@@H]5[C@@]4(C)CC[C@@H]3[C@@]2(C)CC1 (some centres undefined),IC50,HeLa [8],5.6 µM
same,IC50,Ca-Ski [9],5.4 µM
C[C@@H]1CC[C@@]2(OC1)O[C@H]1C[C@H]3[C@@H]4CC=C5C[C@@H](OC(=O)[C@@H]6CCCN6)CC[C@]5(C)[C@H]4CC[C@]3(C)[C@H]1[C@@H]2C,IC50,SH-SY5Y,7.2 µM
C[C@@H]1CC[C@@]2(OC1)O[C@H]1C[C@H]3[C@@H]4CC=C5C[C@@H](O[C@@H]6O[C@H](CO)[C@@H](O)[C@H](O)[C@H]6O[C@@H]6O[C@@H](C)[C@H](O)[C@@H](O)[C@H]6O)CC[C@]5(C)[C@H]4CC[C@]3(C)[C@H]1[C@@H]2C [OPHIOPOGONIN C],IC50,HuCC-A1,5.8 µM
same,IC50,MDA-MB-231 [3],3.5 µM
same,IC50,HepG2 [4],2.92 µM
same,IC50,HeLa [5],3.7 µM
same,IC50,KB,4.2 µM
C[C@@H]1CC[C@@]2(OC1)O[C@H]1C[C@H]3[C@@H]4CC=C5C[C@@H](OC(=O)[C@@H](N)Cc6ccccc6)CC[C@]5(C)[C@H]4CC[C@]3(C)[C@H]1[C@@H]2C,IC50,SH-SY5Y,11.2 µM
Cc1ccc2c(c1)C(=O)C(Cl)=C(OC[C@H](C)CC[C@H]1O[C@H]3C[C@H]4[C@@H]5CC=C6C[C@@H](O[Si](C)(C)C(C)(C)C)CC[C@]6(C)[C@H]5CC[C@]4(C)[C@H]3[C@@H]1C)C2=O,IC50,HepG2 [1],10.9 µM
same,IC50,HeLa [2],17.9 µM
C[C@@H]1CC[C@@]2(OC1)O[C@H]1C[C@H]3[C@@H]4C/C(=N\O)C5=C/C(=N/O)CC[C@]5(C)[C@H]4CC[C@]3(C)[C@H]1[C@@H]2C,IC50,HeLa [8],19 µM
same,IC50,Ca-Ski [9],22 µM
C[C@@H]1CC[C@@]2(OC1)O[C@H]1C[C@H]3[C@@H]4CC=C5C[C@@H](O[C@@H]6O[C@H](CO)[C@@H](O[C@@H]7O[C@@H](C)[C@H](O[C@@H]8O[C@@H](C)[C@H](O[C@@H]9O[C@@H](C)[C@H](O[C@@H]%10O[C@@H](C)[C@H](O)[C@@H](O)[C@H]%10O)[C@@H](O)[C@H]9O)[C@@H](O)[C@H]8O)[C@@H](O)[C@H]7O)[C@H](O)[C@H]6O[C@@H]6O[C@@H](C)[C@H](O)[C@@H](O)[C@H]6O)CC[C@]5(C)[C@H]4CC[C@]3(C)[C@H]1[C@@H]2C,IC50,HepG2 [4],13.4 µM
C[C@@H]1CC[C@@]2(OC1)O[C@H]1C[C@H]3[C@@H]4CC=C5C[C@@H](O[C@@H]6O[C@H](CO)[C@@H](O[C@@H]7O[C@@H](C)[C@H](O)[C@@H](O)[C@H]7O)[C@H](O)[C@H]6O[C@@H]6O[C@@H](C)[C@H](O)[C@@H](O)[C@H]6O)CC[C@]5(C)[C@H]4CC[C@]3(C)[C@H]1[C@@H]2C [DIOSCIN],IC50,HuCC-A1,8.4 µM
same,IC50,Ca-Ski [6],2 µM
same,IC50,MDA-MB-231 [3],1.7 µM
same,IC50,HeLa [7],2 µM
same,IC50,HepG2 [4],3.09 µM
same,IC50,HeLa [5],3.6 µM
same,IC50,KB,6.2 µM
C[C@@H]1CC[C@@]2(OC1)O[C@H]1C[C@H]3[C@@H]4CC=C5C[C@@H](O[C@@H]6O[C@H](CO)[C@@H](O[C@@H]7O[C@H](CO)[C@@H](O)[C@H](O)[C@H]7O)[C@H](O)[C@H]6O[C@@H]6O[C@@H](C)[C@H](O)[C@@H](O)[C@H]6O)CC[C@]5(C)[C@H]4CC[C@]3(C)[C@H]1[C@@H]2C [DELTONIN],IC50,HuCC-A1,3.4 µM
same,IC50,MDA-MB-231 [3],1.1 µM
same,IC50,HeLa [5],0.9 µM
same,IC50,KB,1.2 µM
CC[C@H](C)[C@H](NC(=O)OC(C)(C)C)C(=O)O[C@H]1CC[C@@]2(C)C(=CC[C@H]3[C@@H]4C[C@@H]5O[C@]6(CC[C@@H](C)CO6)[C@@H](C)[C@@H]5[C@@]4(C)CC[C@@H]32)C1,IC50,SH-SY5Y,18.5 µM
C[C@H](CC[C@H]1O[C@H]2C[C@H]3[C@@H]4CC=C5C[C@@H](O[Si](C)(C)C(C)(C)C)CC[C@]5(C)[C@H]4CC[C@]3(C)[C@H]2[C@@H]1C)COC1=C(Cl)C(=O)c2ncccc2C1=O,IC50,HepG2 [1],19.7 µM
CC(C)C[C@H](NC(=O)OC(C)(C)C)C(=O)O[C@H]1CC[C@@]2(C)C(=CC[C@H]3[C@@H]4C[C@@H]5O[C@]6(CC[C@@H](C)CO6)[C@@H](C)[C@@H]5[C@@]4(C)CC[C@@H]32)C1,IC50,SH-SY5Y,9.5 µM
C[C@@H]1CC[C@@]2(OC1)O[C@H]1C[C@H]3[C@@H]4CC=C5C[C@@H](O[C@@H]6O[C@H](CO)[C@@H](O)[C@H](O)[C@H]6O)CC[C@]5(C)[C@H]4CC[C@]3(C)[C@H]1[C@@H]2C [DISOGLUSIDE],IC50,Ca-Ski [6],41 µM
same,IC50,HeLa [7],39.1 µM
COc1cc(-c2cn(C3C[C@H]4[C@@H]5C[C@@H]6O[C@]7(CC[C@@H](C)CO7)[C@@H](C)[C@@H]6[C@@]5(C)CC[C@@H]4[C@@]4(C)CC[C@H](O)CC34O)nn2)cc(OC)c1OC (some centres undefined),IC50,CCRF-CEM,6.26 µM
same,IC50,MDA-MB-231 [10],16.1 µM
same,IC50,U-937,5.45 µM
C[C@H](CC[C@H]1O[C@H]2C[C@H]3[C@@H]4CC=C5C[C@@H](O)CC[C@]5(C)[C@H]4CC[C@]3(C)[C@H]2[C@@H]1C)COC1=C(Cl)C(=O)c2ccccc2C1=O,IC50,HepG2 [1],1.24 µM
same,IC50,HeLa [2],14.1 µM
C[C@@H]1CC[C@@]2(OC1)O[C@H]1C[C@H]3[C@@H]4CC=C5C[C@@H](O[C@@H]6O[C@H](CO)[C@@H](O[C@@H]7O[C@H](CO)[C@@H](O[C@@H]8O[C@@H](C)[C@H](O)[C@@H](O)[C@H]8O)[C@H](O)[C@H]7O)[C@H](O)[C@H]6O[C@@H]6O[C@@H](C)[C@H](O)[C@@H](O)[C@H]6O)CC[C@]5(C)[C@H]4CC[C@]3(C)[C@H]1[C@@H]2C,IC50,HuCC-A1,2.6 µM
same,IC50,MDA-MB-231 [3],0.9 µM
same,IC50,HeLa [5],0.7 µM
same,IC50,KB,0.9 µM
C[C@@H]1CC[C@@]2(OC1)O[C@H]1C[C@H]3[C@@H]4CC(n5cc(-c6ccc(F)cc6)nn5)C5(O)C[C@@H](O)CC[C@]5(C)[C@H]4CC[C@]3(C)[C@H]1[C@@H]2C (some centres undefined),IC50,CCRF-CEM,5.44 µM
same,IC50,T98G,8.87 µM
same,IC50,BT-474,3.85 µM
same,IC50,DU-145,10.1 µM
same,IC50,MDA-MB-231 [10],7.08 µM
same,IC50,U-937,7.07 µM
